Test results: US20130131179A1, “IRON METABOLISM-IMPROVING AGENT” (Ajinomoto Co., Inc., priority 2006, published 2013)
Structures can show the parent of a compound that is named as a salt.

Legend:
[1] = test system: bilateral-kidney-extirpated rats; test: Citric acid administration in a dialysis session in bilateral-kidney-extirpated rats
[2] = as above; conditions: male, CD(SD), rat, plasma, intravenous
[3] = test system: bilaterally nephrectomized rats; test: Citric acid administration in bilaterally nephrectomized rats; conditions: third group, 4.5% (w/v) sodium citrate solution by CVC 0.25 mL/h for 4 hours
[4] = as above; conditions: male, CD(SD), rat, plasma, intravenous, 0.25 mL/h of 4.5% (w/v) sodium citrate solution for 4 h

concentration at 4 h [2]: 265 µg/mL
concentration at 4 h [4]: 211 ± 132 µg/mL
Compound: O=C(O)CC(O)(CC(=O)O)C(=O)O [citric acid, sodium citrate]
difference of plasma iron concentrations relative to that of second group (saline) ([1]; third group versus second group, during 4 h dialysis): about 4 times
difference of plasma iron concentrations between before and after administration ([1]; third group, 4.5% (w/v) sodium citrate solution by CVC 1.0 mL/h during 4 h dialysis with commercial dialysate): 81 µg/dL
difference of plasma iron concentrations between before and after administration [3]: 14 to 18 µg/dL
